Biological target: GCN2 kinase (Homo sapiens, UniProt Q9P2K8)
Experiment: GCN2 enzyme inhibition assay (Transcreener ADP2 fluorescence polarization)
Format: biochemical
Conditions: Enzyme activity for compounds of Formula IV; Ki(app), 280 μM ATP, 25° C.
Protocol: Compounds were screened for their ability to inhibit GCN2 kinase activity using a Transcreener® ADP^2 fluorescence polarization assay that detects ADP levels (BellBrook Labs, WI). Assays were carried out in a buffer consisting of 25 mM Tris-HCl (pH 7.5), 50 mM NaCl, 10 mM MgCl2 and 1 mM DTT. Final substrate concentrations were 280 μM ATP and 200 μM peptidic substrate ([…]-OH [(RS)7], Bachem, Switzerland). Assays were carried out at 25° C. in the presence of a (typical) final concentration of 4 nM GCN2 kinase. An assay buffer containing GCN2 kinase and (RS)7 was prepared. 4.7 μL of this stock solution was placed per well of a black, low volume, 384-well microtitre plate (e.g. catalogue number 3676, Corning Inc., NY). To this was added […] of DMSO containing serial dilutions of the test compound (typical final concentrations of test compound were 0 to 8 μM). The plate was incubated for 10 minutes at 25° C. prior to the addition of 4.7 μL of ATP stock buffer to initiate the enzyme reaction. The reaction was allowed to proceed for 1 hour at 25° C., prior to the addition of 10 μL detection buffer (consisting of appropriate concentrations of ADP^2 antibody and ADP Alexa633 tracer in 1× stop and detect buffer as supplied by BellBrook Labs). […] Percentage inhibition of enzyme activity was then calculated at each compound dose. IC50 and Ki(app) (using known assay and kinetic parameters) values were calculated from percentage inhibition data using a non-linear, tight-binding algorithm. All data analysis was undertaken using the Screener® software package (Genedata, Switzerland).

Sequence of GCN2 kinase (Q9P2K8 whole entry): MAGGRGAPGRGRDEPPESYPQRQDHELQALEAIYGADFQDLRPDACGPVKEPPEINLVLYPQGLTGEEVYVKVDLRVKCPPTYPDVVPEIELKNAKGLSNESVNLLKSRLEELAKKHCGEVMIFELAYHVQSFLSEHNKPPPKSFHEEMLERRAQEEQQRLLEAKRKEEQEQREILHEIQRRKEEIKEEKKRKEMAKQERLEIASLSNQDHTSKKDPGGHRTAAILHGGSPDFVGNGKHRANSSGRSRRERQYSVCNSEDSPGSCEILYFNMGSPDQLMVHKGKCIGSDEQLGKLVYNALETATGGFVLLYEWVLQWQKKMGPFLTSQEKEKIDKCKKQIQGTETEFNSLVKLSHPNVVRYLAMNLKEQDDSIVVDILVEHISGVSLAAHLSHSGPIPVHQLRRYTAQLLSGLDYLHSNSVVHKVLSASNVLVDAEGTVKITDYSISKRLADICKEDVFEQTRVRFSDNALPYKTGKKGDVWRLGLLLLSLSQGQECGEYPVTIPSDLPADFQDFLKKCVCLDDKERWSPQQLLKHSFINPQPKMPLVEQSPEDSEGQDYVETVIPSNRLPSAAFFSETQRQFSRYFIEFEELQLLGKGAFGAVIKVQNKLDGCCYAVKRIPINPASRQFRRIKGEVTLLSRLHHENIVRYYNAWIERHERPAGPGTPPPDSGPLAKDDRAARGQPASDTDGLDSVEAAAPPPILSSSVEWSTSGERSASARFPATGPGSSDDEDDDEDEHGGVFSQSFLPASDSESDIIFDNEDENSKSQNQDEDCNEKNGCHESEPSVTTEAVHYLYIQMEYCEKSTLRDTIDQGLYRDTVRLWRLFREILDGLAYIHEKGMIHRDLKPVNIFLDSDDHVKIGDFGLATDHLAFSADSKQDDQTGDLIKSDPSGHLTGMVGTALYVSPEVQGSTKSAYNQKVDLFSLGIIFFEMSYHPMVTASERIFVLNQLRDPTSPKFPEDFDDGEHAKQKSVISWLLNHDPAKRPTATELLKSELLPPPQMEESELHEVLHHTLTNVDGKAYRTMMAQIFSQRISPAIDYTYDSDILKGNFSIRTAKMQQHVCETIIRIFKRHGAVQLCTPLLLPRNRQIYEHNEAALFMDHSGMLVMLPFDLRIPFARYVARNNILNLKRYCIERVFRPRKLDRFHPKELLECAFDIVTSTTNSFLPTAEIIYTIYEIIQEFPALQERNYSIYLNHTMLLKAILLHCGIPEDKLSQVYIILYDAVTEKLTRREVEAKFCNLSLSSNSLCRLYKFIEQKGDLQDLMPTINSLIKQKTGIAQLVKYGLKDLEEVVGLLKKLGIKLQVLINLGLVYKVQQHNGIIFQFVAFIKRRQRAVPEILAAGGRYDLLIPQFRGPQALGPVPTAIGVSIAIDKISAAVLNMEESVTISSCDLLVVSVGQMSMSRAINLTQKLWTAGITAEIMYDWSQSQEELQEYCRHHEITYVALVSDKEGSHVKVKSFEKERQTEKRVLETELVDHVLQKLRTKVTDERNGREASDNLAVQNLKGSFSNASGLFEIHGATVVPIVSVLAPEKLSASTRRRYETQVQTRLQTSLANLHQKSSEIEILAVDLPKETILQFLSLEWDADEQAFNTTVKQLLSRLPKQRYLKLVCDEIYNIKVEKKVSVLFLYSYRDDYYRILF

Q: For N#C[C@@H]1CCN(c2ccnc(-c3cnc4cnc(C(F)(F)F)cn34)n2)C1 (single isomer, unassigned) [IV-521], which Ki is on record?
A: 100 to 1000 nM

Q: How did the Ki turn out when FC(F)c1cn2c(-c3nccc(-c4cccc(N5CCNCC5)n4)n3)cnc2cn1 [IV-149, 6-(Difluoromethyl)-3-(4-(6-(piperazin-1-yl)pyridin-2-yl)pyrimidin-2-yl)imidazo[1,2-a]pyrazine] was run?
A: 100 to 1000 nM

Q: For CC(=O)N1CCN(c2ccnc(-c3cnc4cnc(C(N)=O)cn34)n2)C(C)C1 (stereo not drawn) [IV-272, 3-(4-(4-Acetyl-2-methylpiperazin-1-yl)pyrimidin-2-yl)imidazo[1,2-a]pyrazine-6-carboxamide], which Ki is on record?
A: 100 to 1000 nM

Q: With FC(F)(F)c1cn2c(-c3nccc(N4CC5CCOC5C4)n3)cnc2cn1 (stereo not drawn) [IV-497, 5-(2-(6-(Trifluoromethyl)imidazo[1,2-a]pyrazin-3-yl)pyrimidin-4-yl)hexahydro-2H-furo[2,3-a]pyrrole] as the molecule, how does the Ki read?
A: 100 to 1000 nM

Q: For O=CNC1CCCN(c2ccnc(-c3cnc4cnc(C(F)(F)F)cn34)n2)C1 (stereo not drawn) [IV-332, N-(1-(2-(6-(trifluoromethyl)imidazo[1,2-a]pyrazin-3-yl)pyrimidin-4-yl)piperidin-3-yl)formamide], which Ki is on record?
A: 100 to 1000 nM

Q: With FC(F)(F)c1cn2c(-c3nccc(N4CCCC(n5ccnn5)C4)n3)cnc2cn1 (stereo not drawn) [IV-600, 3-(4-(3-(1H-1,2,3-Triazol-1-yl)piperidin-1-yl)pyrimidin-2-yl)-6-(trifluoromethyl)imidazo[1,2-a]pyrazine] as the molecule, how does the Ki read?
A: 100 to 1000 nM

Q: How did the Ki turn out when NC(=O)NCC1CCCN(c2ccnc(-c3cnc4cnc(C(F)(F)F)cn34)n2)C1 (stereo not drawn) [IV-527, 1-((1-(2-(6-(Trifluoromethyl)imidazo[1,2-a]pyrazin-3-yl)pyrimidin-4-yl)piperidin-3-yl)methyl)urea] was run?
A: 100 to 1000 nM

Q: For Fc1n[nH]cc1C1=CCCN(c2ccnc(-c3cnc4cnc(C(F)(F)F)cn34)n2)C1 [IV-430, 3-(4-(5-(3-Fluoro-1H-pyrazol-4-yl)-3,6-dihydropyridin-1(2H)-yl)pyrimidin-2-yl)-6-(trifluoromethyl)imidazo[1,2-a]pyrazine], which Ki is on record?
A: < 10 nM

Q: Which Ki does the source give for CN1CCN(c2ccnc(-c3cnc4cnc(C(N)=O)cn34)n2)CC1 [IV-239, 3-(4-(4-Methylpiperazin-1-yl)pyrimidin-2-yl)imidazo[1,2-a]pyrazine-6-carboxamide] here?
A: 100 to 1000 nM

Same assay, conditions: compounds of Formula II; 280 μM ATP, 4 nM GCN2 kinase

Q: How did the Ki turn out when CC(C)(O)C1CCCN(c2cc(-c3cnc4ccc(C(F)F)nn34)ncn2)C1 (single isomer, unassigned) [II-614, 2-(1-(6-(6-(Difluoromethyl)imidazo[1,2-b]pyridazin-3-yl)pyrimidin-4-yl)piperidin-3-yl)propan-2-ol] was run?
A: 10 to 1000 nM

Q: Which Ki does the source give for CC1CN(c2cc(-c3cnc4ccc(C(F)F)nn34)ncn2)CC(CO)C1(F)F (stereo not drawn) [II-624, (1-(6-(6-(Difluoromethyl)imidazo[1,2-b]pyridazin-3-yl)pyrimidin-4-yl)-4,4-difluoro-5-methylpiperidin-3-yl)methanol] here?
A: 10 to 1000 nM

Q: For CC1CCC(NS(C)(=O)=O)CN1c1cc(-c2cnc3ccc(C(F)F)nn23)ncn1 (stereo not drawn) [II-551, N-(1-(6-(6-(Difluoromethyl)imidazo[1,2-b]pyridazin-3-yl)pyrimidin-4-yl)-6-methylpiperidin-3-yl)methanesulfonamide], which Ki is on record?
A: 10 to 1000 nM

Q: For C[C@@H]1C[C@H](N=S(C)(C)=O)CN(c2cc(-c3cnc4ccc(N5CC(F)C5)nn34)ncn2)C1 [II-764, (((3S,5R)-1-(6-(6-(3-fluoroazetidin-1-yl)imidazo[1,2-b]pyridazin-3-yl)pyrimidin-4-yl)-5-methylpiperidin-3-yl)imino)dimethyl-16-sulfanone], which IC50 is on record?
A: 10 to 1000 nM

Q: CC1CCN(c2cc(-c3cnc4ccc(C(F)F)nn34)ncn2)CC1N=S(C)(C)=O (single isomer, unassigned) [II-632, ((1-(6-(6-(Difluoromethyl)imidazo[1,2-b]pyridazin-3-yl)pyrimidin-4-yl)-4-methylpiperidin-3-yl)imino)dimethyl-λ^6-sulfanone] was tested. Which Ki did it give?
A: 10 to 1000 nM

Q: N#CC1CN(c2cc(-c3cnc4ccc(C(F)F)nn34)ncn2)CCO1 (stereo not drawn) [II-531, 4-(6-(6-(Difluoromethyl)imidazo[1,2-b]pyridazin-3-yl)pyrimidin-4-yl)morpholine-2-carbonitrile] was tested. Which Ki did it give?
A: 10 to 1000 nM

Reference: US10988477B2 (Merck Patent GmbH, priority 2018, dated 2021)
